Experimental data from patent US11109593B2, “Isoxazolin-5-one derivative and herbicide containing same as active ingredient” (HOKKO CHEMICAL INDUSTRY CO., LTD., priority 2017, dated 2021).

What was measured:
Type in all cases: in vivo
Echinochloa crus-galli [1] = experiment: Test Example 2: herbicidal effect test by treatment during growing period in paddy rice cultivation (seven days after seeding); conditions: 120 g/10a active ingredient, assessed 14 days after treatment, dry weight vs untreated area
Summary of the method: (§1)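 Post-emergence paddy water application: compounds were formulated as emulsions, diluted and dropped into flooded pots seven days after sowing at a rate equivalent to 120 g per 10 ares. Efficacy was taken as dry-weight reduction relative to untreated controls after 14 days.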

[2] = test system: broad leaf weeds (Lindernia pyxidaria and Monochoria vaginalis); experiment: as above; conditions: 120 g/10a active ingredient, assessed 14 days after treatment, dry weight vs untreated area; for pest or weed control at 1200 g/ha: 336 h
Summary of the method: as §1

Scirpus juncoides [3] = experiment: as above; conditions: 120 g/10a active ingredient, assessed 14 days after treatment, dry weight vs untreated area
Summary of the method: as §1

southern crabgrass [4] = experiment: Test Example 3: herbicidal effect test by treatment of dry field farming soil (one day after seeding); conditions: 120 g/10a active ingredient, evaluated 14 days after treatment
Summary of the method: (§2)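 Dry-field alluvium pots; weed seeds incorporated in top 1 cm; soil spray of diluted emulsion 1 d after seeding, 120 g a.i./10 a in 100 L/10 a. Readout: % reduction of dry weight vs untreated, day 14, duplicates.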

Echinochloa crus-galli [5] = experiment: as above; conditions: 120 g/10a active ingredient, evaluated 14 days after treatment
Summary of the method: as §2

Amaranthus viridis [6] = experiment: as above; conditions: 120 g/10a active ingredient, evaluated 14 days after treatment
Summary of the method: as §2

Chenopodium album [7] = experiment: as above; conditions: 120 g/10a active ingredient, evaluated 14 days after treatment
Summary of the method: as §2

southern crabgrass [8] = experiment: Test Example 4: herbicidal effect test by treatment of leave and stem in dry field farming (seven days after seeding); conditions: 120 g/10a active ingredient, emulsion sprayed seven days after seeding, evaluated 14 days after treatment
Summary of the method: (§3)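 Duplicate pots were scored 14 days post-spray by dry weight, herbicidal rate = {1 − treated/untreated average dry weight} × 100. The water-diluted emulsion, equivalent to 120 g active ingredient per 10 ares in 100 L, was applied seven days after sowing 20 seeds each into the upper 1 cm of alluvial soil.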

Echinochloa crus-galli [9] = experiment: as above; conditions: 120 g/10a active ingredient, emulsion sprayed seven days after seeding, evaluated 14 days after treatment
Summary of the method: as §3

Amaranthus viridis [10] = experiment: as above; conditions: 120 g/10a active ingredient, emulsion sprayed seven days after seeding, evaluated 14 days after treatment
Summary of the method: as §3

Chenopodium album [11] = experiment: as above; conditions: 120 g/10a active ingredient, emulsion sprayed seven days after seeding, evaluated 14 days after treatment
Summary of the method: as §3

Echinochloa crus-galli [12] = experiment: Test Example 1: herbicidal effect test by treatment of rice paddy soil (immediately after seeding); conditions: 120 g/10a active ingredient, dry weight vs untreated area, 14 days after treatment
Summary of the method: (§4)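 Pre-emergence paddy water application, 120 g a.i./10 ares, applied immediately post-seeding into ~3 cm flood; glasshouse; duplicate pots; dry weight at 14 d → % inhibition = (1 − treated/untreated) × 100.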

[13] = test system: broad leaf weeds (Lindernia pyxidaria and Monochoria vaginalis); experiment: as above; conditions: 120 g/10a active ingredient, dry weight vs untreated area, 14 days after treatment; for pest or weed control at 1200 g/ha: 336 h
Summary of the method: as §4

Scirpus juncoides [14] = experiment: as above; conditions: 120 g/10a active ingredient, dry weight vs untreated area, 14 days after treatment
Summary of the method: as §4

SMILES | Herbicidal rate (%) Echinochloa crus-galli (Echinochloa crus-galli [1]) | Herbicidal rate (%) Lindernia pyxidaria ([2]; Lindernia pyxidaria) | Herbicidal rate (%) Monochoria vaginalis ([2]; Monochoria vaginalis) | Herbicidal rate (%) Scirpus juncoides (Scirpus juncoides [3]) | herbicidal rate, southern crabgrass (southern crabgrass [4]) | herbicidal rate, Echinochloa crus-galli (Echinochloa crus-galli [5]) | herbicidal rate, Amaranthus viridis (Amaranthus viridis [6]) | herbicidal rate, Chenopodium album (Chenopodium album [7]) | herbicidal effect (herbicidal rate), southern crabgrass (southern crabgrass [8]) | herbicidal effect (herbicidal rate), Echinochloa crus-galli (Echinochloa crus-galli [9]) | herbicidal effect (herbicidal rate), Amaranthus viridis (Amaranthus viridis [10]) | herbicidal effect (herbicidal rate), Chenopodium album (Chenopodium album [11]) | Herbicidal rate (%) Echinochloa crus-galli (Echinochloa crus-galli [12]) | Herbicidal rate (%) Lindernia pyxidaria ([13]; Lindernia pyxidaria) | Herbicidal rate (%) Monochoria vaginalis ([13]; Monochoria vaginalis) | Herbicidal rate (%) Scirpus juncoides (Scirpus juncoides [14]) | other results
CCOC(=O)N(c1ccccc1Cc1c(C)n(C(C)COC)oc1=O)S(=O)(=O)C(F)(F)F (centres unmarked) [Compound 1-615] | 90% | 90% | 90% | 90% | 90% | 90% | 90% | 90% | 90% | 90% | 40% | 40% | 90% | 90% | 90% | 90% | 
Cc1c(Cc2ccccc2N(C(=O)CC(C)C)S(=O)(=O)C(F)(F)F)c(=O)on1CC(C)(C)C [Compound 1-355] | 90% | 90% | 90% | 90% | 90% | 90% | 90% | 90% | 90% | 90% | 40% | 40% | 90% | 90% | 90% | 90% | 
CCC(C)n1oc(=O)c(Cc2ccccc2N(S(=O)(=O)C(F)(F)F)S(=O)(=O)C(F)(F)F)c1C (centres unmarked) [Compound 1-964, 1,1,1-trifluoro-N-[2-[(3-methyl-5-oxo-2-sec-butyl-isoxazol-4-yl)methyl]phenyl]-N-(trifluoromethylsulfonyl)methanesulfonamide] |  |  |  |  |  |  |  |  |  |  |  |  |  |  |  |  | pest or weed control at 1200 g/ha (Echinochloa crus-galli [1]; Echinochloa crus-galli, 336 h, read-out: herbicidal rate (%) Echinochloa crus-galli): 90%; pest or weed control at 1200 g/ha ([2]; Lindernia pyxidaria, read-out: herbicidal rate (%) Lindernia pyxidaria): 90%; pest or weed control at 1200 g/ha ([2]; Monochoria vaginalis, read-out: herbicidal rate (%) Monochoria vaginalis): 90%; pest or weed control at 1200 g/ha (Scirpus juncoides [3]; Schoenoplectiella juncoides, 336 h, read-out: herbicidal rate (%) Scirpus juncoides): 90%; pest or weed control at 1200 g/ha (southern crabgrass [4]; Digitaria ciliaris, 336 h, read-out: herbicidal rate, southern crabgrass): 90%; pest or weed control at 1200 g/ha (Echinochloa crus-galli [5]; Echinochloa crus-galli, 336 h, read-out: herbicidal rate, Echinochloa crus-galli): 90%; pest or weed control at 1200 g/ha (Amaranthus viridis [6]; Amaranthus viridis, 336 h, read-out: herbicidal rate, Amaranthus viridis): 90%; pest or weed control at 1200 g/ha (Chenopodium album [7]; Chenopodium album, 336 h, read-out: herbicidal rate, Chenopodium album): 90%; pest or weed control at 1200 g/ha (southern crabgrass [8]; Digitaria ciliaris, 336 h, read-out: herbicidal effect (herbicidal rate), southern crabgrass): 60%; pest or weed control at 1200 g/ha (Echinochloa crus-galli [9]; Echinochloa crus-galli, 336 h, read-out: herbicidal effect (herbicidal rate), Echinochloa crus-galli): 90%; pest or weed control at 1200 g/ha (Amaranthus viridis [10]; Amaranthus viridis, 336 h, read-out: herbicidal effect (herbicidal rate), Amaranthus viridis): 40%; pest or weed control at 1200 g/ha (Chenopodium album [11]; Chenopodium album, 336 h, read-out: herbicidal effect (herbicidal rate), Chenopodium album): 0%; pest or weed control at 1200 g/ha (Echinochloa crus-galli [12]; in Echinochloa crus-galli, 336 h, read-out: Herbicidal rate (%) Echinochloa crus-galli): 90%; pest or weed control at 1200 g/ha ([13]; Monochoria vaginalis, read-out: Herbicidal rate (%) Monochoria vaginalis): 100%; pest or weed control at 1200 g/ha ([13]; in Lindernia, Lindernia pyxidaria, read-out: Herbicidal rate (%) Lindernia pyxidaria): 100%; pest or weed control at 1200 g/ha (Scirpus juncoides [14]; in Schoenoplectiella juncoides, 336 h, read-out: Herbicidal rate (%) Scirpus juncoides): 90%
Cc1c(Cc2ccccc2N(C(=O)OCC(C)C)S(=O)(=O)C(F)(F)F)c(=O)on1C [Compound 1-666] | 100% | 90% | 90% | 90% | 100% | 90% | 0% | 40% | 70% | 90% | 40% | 50% | 100% | 80% | 100% | 90% | 
CCC(=O)N(c1ccccc1Cc1c(C)n(C(C)CC)oc1=O)S(=O)(=O)C(F)(F)F (centres unmarked) [Compound 1-316] | 90% | 90% | 90% | 90% | 90% | 90% | 90% | 90% | 90% | 90% | 40% | 40% | 90% | 90% | 90% | 90% | 
COCC(C)n1oc(=O)c(Cc2ccccc2N(C(=O)CC(C)C)S(=O)(=O)C(F)(F)F)c1C (centres unmarked) [Compound 1-357] | 90% | 90% | 90% | 90% | 90% | 90% | 90% | 90% | 90% | 90% | 40% | 40% | 90% | 90% | 90% | 90% | 
COCCn1oc(=O)c(Cc2ccccc2NS(=O)(=O)C(F)(F)F)c1C [Compound 1-148] | 90% | 60% | 80% | 90% | 100% | 100% | 80% | 80% | 80% | 90% | 40% | 40% | 90% | 100% | 90% | 100% | 
CCN(CC)C(=O)n1oc(=O)c(Cc2ccccc2NS(=O)(=O)C(F)(F)F)c1C [Compound 1-248] | 40% | 90% | 90% | 90% | 80% | 70% | 50% | 60% | 40% | 80% | 40% | 0% | 60% | 90% | 80% | 50% | 
